In EP0688336B1, “PEPTIDE BORONIC ACID DERIVATIVES HAVING PROTEASE INHIBITING ACTIVITY” (Novartis AG, priority 1993, dated 1994):

Tests used:
[1] = in vivo; cited from earlier work
thrombin = thrombin (Homo sapiens, UniProt P00734); details: cited from earlier work
thrombus formation = experiment: Arterio-venous shunt thrombosis model; assay type: in vivo; details: rat
Protocol: In the arterio-venous shunt thrombosis model in the rat, a modification of the model described by Butler et al. (Blood Coag. Fibrinol., Vol. 3, (1992), page 155), the compounds of the invention prevent thrombus formation in a dose dependent manner. Using the compound of Example 1, thrombus formation is inhibited by 21% at a dose of 0.3 mg/kg i.v. and blocked by a dose of 3 mg/kg i.v.

[2] = test system: pooled citrated human plasma; experiment: In vitro coagulation assay: activated partial thromboplastin time (APTT); assay type: biochemical; details: Actin-FS, 4 min at 37°C, CaCl2
Protocol: (§1) In vitro coagulation assays are performed with pooled citrated human plasma. Substance to be tested or solvent are incubated with plasma for 10 min at 37°C prior to assay. Thrombin time(TT) determinations are performed at a final thrombin concentration of 5 U/ml. Activated partial thromboplastin time (APTT) is determined by incubating 0.1 ml plasma ± substance to be tested with 0.1 ml purified soya bean phospholipid in ellagic acid (Actin-FS) for 4 min at 37°C and followed by the addition of 0.1 ml CaCl2 (50mM). […] With the compound of Example 1, prolongation of TT above 300 sec is achieved at 1.8 µM, elevation of APTT to 2x the control value is achieved at 4.4 µM.

Washed human platelets = experiment: In vitro platelet aggregation assay induced by thrombin; assay type: cell-based; details: aggregation induced by 1 nM human thrombin
Protocol: Washed human platelets are prepared by a modification of the method of Ardlie ([…]. 1970, 19:7-17). Washed platelet suspension (0.46 ml) is kept at 37°C and stirred at 1100 rpm. After the addition of the substance to be tested or solvent. the platelets are maintained for 2 min before aggregation is induced by 1 nM human thrombin. The extent of platelet aggregation is quantitated by the maximum aggregation amplitude and inhibition of aggregation rate observed in the absence of inhibitor.

[3] = test system: pooled citrated human plasma; experiment: In vitro coagulation assay: thrombin time (TT); assay type: biochemical; details: final thrombin concentration 5 U/ml; 10 min at 37°C preincubation
Protocol: as §1

SMILES	LD50 value [1]	inhibition in vitro (thrombin)	thrombus formation is inhibited (thrombus formation; dose of 0.3 mg/kg i.v.) [%]	thrombus formation (thrombus formation; dose of 3 mg/kg i.v.)	concentration at which elevation of APTT to 2x the control value is achieved [2] [µM]	IC50 (Washed human platelets) [nM]	concentration at which prolongation of TT above 300 sec is achieved [3] [µM]
N=C(N)NCCC[C@@H](C=O)NC(=O)[C@@H]1CCCN1C(=O)[C@H](N)Cc1ccccc1 [D-Phe-Pro-Arginal]	quite a low	~10^-8 M					
CC(C)(C)OC(=O)NC(C[Si](C)(C)C)C(=O)N1CCCC1C(=O)NC(CCCCO)B1OC2CC3CC(C3(C)C)C2(C)O1 [Example 1, Boc-D-TMSal-Pro-NH-CH[(CH2)4OH]B-OPin]			21	blocked	4.4	3.8	1.8
NC(N)=NCCC[C@H](NC(=O)[C@@H]1CCCN1C(=O)[C@H](N)Cc1ccccc1)C(=O)CCl [D-Phe-Pro-Arg-CH2Cl]		~10^-8 M					
